The text below walks through data of patent publication US20240131032A1, “AN ACTIVITY-GUIDED MAP OF ELECTROPHILE-CYSTEINE INTERACTIONS IN PRIMARY HUMAN IMMUNE CELLS” (The Scripps Research Institute, priority 2019, published 2024).

Residues, ends and D or L forms follow the SMILES beside them. *: point of attachment. Cbz = O=C(OCc1ccccc1)*

The target in one test is BIRC2 (Homo sapiens, UniProt Q13490). Put plainly: Western blot of BIRC2 content in human T cells. The note with it: MG132 10 μM with EV-3, 24 h. A general note: A western blot detects proteins with antibodies after separation by electrophoresis.
Sequence of BIRC2 (Q13490 whole entry): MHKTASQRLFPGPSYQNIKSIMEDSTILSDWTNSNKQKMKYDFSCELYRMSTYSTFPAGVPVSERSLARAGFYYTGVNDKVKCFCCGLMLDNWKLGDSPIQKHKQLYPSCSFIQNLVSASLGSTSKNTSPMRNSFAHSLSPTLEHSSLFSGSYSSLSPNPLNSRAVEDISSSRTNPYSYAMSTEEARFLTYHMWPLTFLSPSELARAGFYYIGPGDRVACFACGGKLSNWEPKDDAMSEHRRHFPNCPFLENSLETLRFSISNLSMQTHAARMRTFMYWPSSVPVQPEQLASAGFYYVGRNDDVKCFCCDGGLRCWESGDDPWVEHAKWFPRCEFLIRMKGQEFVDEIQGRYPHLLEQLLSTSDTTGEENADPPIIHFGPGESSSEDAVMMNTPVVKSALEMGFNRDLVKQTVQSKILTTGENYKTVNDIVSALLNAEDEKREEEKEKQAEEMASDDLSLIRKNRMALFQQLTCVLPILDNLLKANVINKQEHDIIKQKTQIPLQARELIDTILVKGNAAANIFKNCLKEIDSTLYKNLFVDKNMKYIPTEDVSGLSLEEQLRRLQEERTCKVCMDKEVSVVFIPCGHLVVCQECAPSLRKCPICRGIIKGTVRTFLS
For a further test, the system named is NuRD complex. The test is described as follows: Expression-based proteomics (TMT-exp) of compound-treated T cells, NuRD complex. It is filed as cell-based, human. The conditions noted are these: MG132 10 μM co-treatment, 24 h. On the procedure:
FIG. 7B is a scatter plot representation of protein abundance changes caused by BPK-25 (10 μM, 24 h) in two independent replicate experiments, with decreases in NuRD complex components highlighted in red. FIG. 7C is a heatmap of top proteins with decreased abundance in BPK-25-treated T cells showing that the subset of these proteins in the NuRD complex (asterisks) were largely unaltered by other active compounds and blocked in their degradation by co-treatment with the proteasome inhibitor MG132. […] FIG. 7E is a bar graph […] showing time-dependent reductions in NuRD complex members in human T cells treated with BPK-25 (10 μM). Left, representative western blots. Right, quantification of changes in protein. […] FIG. 7G is a heat map showing the changes in cysteine reactivity for NuRD complex members in human T cells treated with BPK-25 and other active compounds.
Freshly isolated T cells (1.6×10^7 cells, 2×10^6 cells/mL in RPMI media) were treated with compound or DMSO for 24 h, pelleted (600 g, 5 min), and washed with PBS (1×10 mL). The cells were then transferred to an Eppendorf tube in additional PBS (1 mL), pelleted (600 g, 5 min), flash frozen, and kept at −80° C. until further analysis. On the first day of the whole proteome TMT protocol, the cells were thawed on ice and lysed in lysis buffer (150 μL, 1 tablet of Roche complete, mini, EDTA-free Protease Inhibitor Cocktail dissolved in 10 mL of PBS) using a probe sonicator (2×8 pulses). Protein concentration was adjusted to 2.0 mg/mL and the samples (100 μL) were transferred to new Eppendorf tubes (1.5 mL) containing urea (48 mg/tube, final urea concentration: 8 M). DTT (5 μL, 200 mM fresh stock in H2O, final DTT concentration: 10 mM) was then added to the tubes and the samples were incubated at 65° C. for 15 min. Following this incubation, iodoacetamide (5 μL, 400 mM fresh stock in H2O, final IA concentration: 20 mM) was added and the samples were incubated in the dark at 37° C. with shaking for 30 min. Ice-cold MeOH (600 μL), CHCl3 (200 μL), and H2O (500 μL) were then added, the mixture was vortexed and centrifuged (10,000 g, 10 min, 4° C.) to afford a protein disc at the interface of CHCl3 and aqueous layers. The top layer was aspirated without perturbing the disk, additional MeOH (600 μL) was added and the proteins were pelleted (10,000 g, 10 min, 4° C.) and used in the next step or stored at −80° C. overnight.
The resulting protein pellets were resuspended in EPPS buffer (160 μL, 200 mM, pH 8) using a probe sonicator (2×6 pulses). […]
The sample became clear after the overnight digestion. At this point, peptide concentration was determined using microBCA assay (Thermo Scientific) according to manufacturer's instructions. […]

The target in another test is T1, ITK (Homo sapiens, UniProt Q08881).
T1 construct: endogenous in cells; host or cells: primary human T cells (αCD3/CD28-stimulated, naïve or expanded)
T1 sequence (Q08881 1-620): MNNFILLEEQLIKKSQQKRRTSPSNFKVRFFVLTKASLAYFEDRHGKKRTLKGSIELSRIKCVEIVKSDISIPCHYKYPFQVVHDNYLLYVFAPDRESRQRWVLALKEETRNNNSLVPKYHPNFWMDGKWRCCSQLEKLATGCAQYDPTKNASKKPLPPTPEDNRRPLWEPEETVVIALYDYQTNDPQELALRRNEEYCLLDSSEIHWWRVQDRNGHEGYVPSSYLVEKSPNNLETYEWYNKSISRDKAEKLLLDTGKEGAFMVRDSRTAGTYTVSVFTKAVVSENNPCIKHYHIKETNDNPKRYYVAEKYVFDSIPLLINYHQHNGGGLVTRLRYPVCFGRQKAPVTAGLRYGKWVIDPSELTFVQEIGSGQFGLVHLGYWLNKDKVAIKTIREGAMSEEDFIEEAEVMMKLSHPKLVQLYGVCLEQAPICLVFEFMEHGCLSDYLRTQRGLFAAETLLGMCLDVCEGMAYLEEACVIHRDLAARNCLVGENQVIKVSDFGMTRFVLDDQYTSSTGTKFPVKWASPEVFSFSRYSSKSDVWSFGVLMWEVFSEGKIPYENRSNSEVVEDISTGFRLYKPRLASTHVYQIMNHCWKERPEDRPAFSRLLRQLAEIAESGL
Put plainly: Western blot of ITK protein content in T cells. In kind it is cell-based. The conditions noted are these: MG132 10 μM.

Another test deals with T2, BIRC3 (Homo sapiens, UniProt Q13489).
T2 construct: endogenous in cells; host or cells: primary human T cells
T2 sequence (Q13489 whole entry): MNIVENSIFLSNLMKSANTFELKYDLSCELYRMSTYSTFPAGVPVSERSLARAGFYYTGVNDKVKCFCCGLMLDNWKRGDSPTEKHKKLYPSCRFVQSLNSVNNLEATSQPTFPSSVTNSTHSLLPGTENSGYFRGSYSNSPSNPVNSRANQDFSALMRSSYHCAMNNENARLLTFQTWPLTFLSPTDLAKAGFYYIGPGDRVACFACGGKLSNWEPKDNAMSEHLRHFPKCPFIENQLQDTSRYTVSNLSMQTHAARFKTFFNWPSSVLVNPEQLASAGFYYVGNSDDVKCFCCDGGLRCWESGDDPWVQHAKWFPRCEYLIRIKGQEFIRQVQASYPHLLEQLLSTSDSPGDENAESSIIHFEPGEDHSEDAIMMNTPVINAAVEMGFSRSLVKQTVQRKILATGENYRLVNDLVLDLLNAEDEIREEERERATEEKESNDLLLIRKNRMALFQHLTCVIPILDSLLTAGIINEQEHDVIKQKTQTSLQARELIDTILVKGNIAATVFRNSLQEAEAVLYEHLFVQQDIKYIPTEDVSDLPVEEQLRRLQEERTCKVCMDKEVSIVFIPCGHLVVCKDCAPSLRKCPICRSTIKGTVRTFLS
The test is described as follows: Western blot of BIRC3 content in human T cells. In kind it is cell-based. The conditions noted are these: MG132 10 μM with EV-3, 24 h.

The test system of another test is primary human T cells. The note with it: cited from earlier work.
The target in a further test is T3, ERCC3 (Homo sapiens, UniProt P19447).
T3 construct: endogenous in cells; host or cells: primary human T cells
T3 sequence (P19447 1-782): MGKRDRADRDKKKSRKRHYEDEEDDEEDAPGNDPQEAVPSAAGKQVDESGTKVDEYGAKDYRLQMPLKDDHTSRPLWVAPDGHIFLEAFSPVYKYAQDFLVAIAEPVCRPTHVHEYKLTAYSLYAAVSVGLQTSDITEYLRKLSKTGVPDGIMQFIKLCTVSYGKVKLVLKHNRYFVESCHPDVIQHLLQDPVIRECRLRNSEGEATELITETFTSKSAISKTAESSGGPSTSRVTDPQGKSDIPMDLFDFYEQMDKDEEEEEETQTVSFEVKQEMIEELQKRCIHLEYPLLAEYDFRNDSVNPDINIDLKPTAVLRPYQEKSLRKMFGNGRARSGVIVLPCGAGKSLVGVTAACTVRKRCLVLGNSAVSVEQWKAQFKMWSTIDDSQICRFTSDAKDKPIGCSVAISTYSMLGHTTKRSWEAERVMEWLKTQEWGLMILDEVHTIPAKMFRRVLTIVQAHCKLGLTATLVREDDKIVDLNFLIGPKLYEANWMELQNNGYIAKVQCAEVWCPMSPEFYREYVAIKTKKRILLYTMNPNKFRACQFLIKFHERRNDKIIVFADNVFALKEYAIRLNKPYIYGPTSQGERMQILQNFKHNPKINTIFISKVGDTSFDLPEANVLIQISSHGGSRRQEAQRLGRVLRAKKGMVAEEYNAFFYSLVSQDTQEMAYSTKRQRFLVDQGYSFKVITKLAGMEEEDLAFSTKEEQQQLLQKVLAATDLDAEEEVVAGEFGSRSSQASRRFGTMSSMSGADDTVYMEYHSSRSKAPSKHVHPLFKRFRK
The test is described as follows: isoTOP-ABPP and TMT-ABPP cysteine engagement, ERCC3. In kind it is binding. As for the experimental part: Activated or expanded T cells were re-suspended in RPMI media supplemented with 10% FBS, L-glutamine (2 mM), penicillin (100 U/mL), and streptomycin (100 μg/mL) at 2×10^6 cells/mL. The compounds were added to cells as 1000×DMSO stocks and mixed well with the media by pipetting up and down after addition. The cells were kept at 37° C. in 5% CO2 containing incubators for 3 h (or otherwise specified times), then pelleted by centrifugation (524 g, 5 min, 4° C.), washed with cold PBS (10 mL) and transferred to Eppendorf tubes (1 mL PBS). The cells were pelleted again (524 g, 5 min, 4° C.), flash-frozen, and kept at −80° C. until further analysis.
Activated or expanded primary human T cells were re-suspended in RPMI (1×10^6 cells/mL) containing 10% fetal bovine serum (FBS), penicillin (100 U/mL), streptomycin ([…]), and L-glutamine (2 mM). The cells were treated with DMSO or compounds for 3 h, pelleted (524 g, 5 min), washed with PBS, and lysed by sonication (2×8 pulses). Soluble and particulate proteomic fractions were separated by ultracentrifugation (100,000 g, 45 min), and protein concentration was normalized to 1.7 mg/mL using a standard DC protein assay (Bio-Rad). The resulting proteomes were analyzed by competitive isotopic Tandem Orthogonal Proteolysis Activity-Based Protein Profiling (isoTOP-ABPP).
Samples (500 μL, 1.7 mg/mL) were treated with iodoacetamide alkyne (IA-alkyne, 5 μL of 10 mM stock in DMSO, final concentration: 100 μM) for 1 h at ambient temperature. Modified proteins were then conjugated to isotopically labeled, TEV-cleavable biotin tags (TEV-tags) using copper-catalyzed azide-alkyne cycloaddition reaction (CuAAC). Reagents for the CuAAC reaction were pre-mixed prior to their addition to the proteome samples. […]
The heavy/light isoTOP-ABPP ratios (R values) for each unique peptide (DMSO/compound treated) were quantified with in-house CIMAGE software (Weerapana et al., 2010) using default parameters (3 MS1 acquisitions per peak and signal to noise threshold set to 2.5). Site-specific engagement of cysteine residues was assessed by blockade of IA-alkyne probe labeling. […] Ratios for unique peptide sequences were calculated for each experiment; overlapping peptides with the same modified cysteine (e.g., different charge states, elution times or tryptic termini) were grouped together and the median ratio was reported as the final ratio (R). […]

The subject of another test is NF-κB. The note with it: cited from earlier work.

Method for BIRC2: All treatments were for 24 h.
All treatments were for 24 h. […] Plasmids expressing FLAG epitope-tagged versions of wild-type (WT) or the indicated cysteine-to-alanine mutants of BIRC2 (C45A) and BIRC3 (C28A) were co-transfected into primary human T cells with mCherry-expressing plasmid to control for transfection efficiency for 24 h. Cells were then treated with DMSO, EV-3 (10 μM), or AT-406 (1 μM) for 24 h and analyzed by anti-FLAG western blotting. […] (G) Quantitation of western blot data, where protein band intensity calculations were made using ImageJ software and represent the mean percentage of DMSO treated control±SEM; n=3 independent experiments per group. *p<0.05; **p<0.01 by two-tailed unpaired t test with Welch's correction compared to respective DMSO treatments.
Western blot analysis was performed on freshly isolated or expanded T cells. For Western blot protein degradation analysis, primary human T cells (2×10^7 cells/treatment) were re-suspended in RPMI media at 2×10^6 cells/mL and treated with the compounds or DMSO at 37° C. in a CO2 containing incubator for 24 h (or otherwise indicated times).
Method for ITK: T cells were treated with DMSO or compounds (5 μM each) for 8 h. […] (F) Quantitation of western blot data, where protein band intensity calculations were made using ImageJ software and represent the mean percentage of DMSO-treated control±SD; n=2-5 independent experiments per group. **p<0.01 by two-tailed unpaired t test with Welch's correction compared to EV-97 treatment. […] Data are presented as the mean percentage of DMSO-treated control±SEM; n=4 independent experiments per group. ****p<0.0001 by two-tailed unpaired t test with Welch's correction compared to DMSO-treated stim control.
Results are from one experiment representative of 2-5 independent experiments. […] Cells were treated with compounds (5 μM each) or DMSO control for 8 h. Protein band intensity calculations were made using ImageJ software and represent the mean percentage of DMSO-treated control±SD; n=2-5 independent experiments per group. **p<0.01 by two-tailed unpaired t test with Welch's correction compared to DMSO-treated stim control. […] Cells treated with DMSO or EV-96 (5 μM) for 1-8 h. Results are from a single experiment representative of 2-4 independent experiments. […] Cells were treated with compounds (5 μM each) or DMSO for 8 h. Results are from one experiment representative of 2 independent experiments.

In the case of `CC(C)C[C@@H](C=O)NC(=O)[C@H](CC(C)C)NC(=O)[C@H](CC(C)C)NC(=O)OCc1ccccc1` [MG132, reference compound] (Cbz-Leu-Leu-Leu-aldehyde), the “effect on EV-3-induced loss of BIRC2” value on BIRC2 is on record as “blocks”. The “effect on BPK-25-mediated reductions in NuRD complex proteins” value in the test on NuRD complex is “blocked”. Further, the “effect on EV-96-mediated loss of ITK (co-treatment)” value at ITK is reported as “blocked”. Besides, the “effect on EV-3-induced loss of BIRC3” value on BIRC3 was “blocks”.
On to `CC(C)[C@]12O[C@H]1[C@@H]1O[C@]13[C@]1(O[C@H]1C[C@H]1C4=C(CC[C@@]13C)C(=O)OC4)[C@@H]2O` [triptolide], for which the “effect on T cell activation (has been shown)” value with primary human T cells is on record as “impair T cell activation”. Besides, on ERCC3, the “engagement of C342 of ERCC3” value is on record as “also targeted”. In addition, the “NF-κB DNA binding activity (has been shown)” value in the test with NF-κB is on record as “without blocking”.
